Measurements published in PubChem BioAssay (NCI).
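Method: 48-hour compound exposure of cells in 96-well plates, five concentrations, linear interpolation of endpoints. Definition used: TGI = concentration required for complete inhibition of growth.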

What was measured:
Assay in all cases: NCI-60 cell line screen, 48 h
UACC-62 melanoma = system: UACC-62 melanoma
KM20L2 colon = system: KM20L2 colon
RPMI-8226 leukemia = system: RPMI-8226 leukemia
HOP-62 NSCLC = system: HOP-62 NSCLC
KM12 colon = system: KM12 colon
SNB-75 CNS = system: SNB-75 CNS
LXFL 529 NSCLC = system: LXFL 529 NSCLC
OVCAR-8 ovarian = system: OVCAR-8 ovarian
SNB-78 CNS = system: SNB-78 CNS
SF-539 CNS = system: SF-539 CNS
COLO 205 colon = system: COLO 205 colon
DMS 114 small cell lung = system: DMS 114 small cell lung
SF-295 CNS = system: SF-295 CNS
UO-31 renal = system: UO-31 renal
U251 CNS = system: U251 CNS
MALME-3M melanoma = system: MALME-3M melanoma
MOLT-4 leukemia = system: MOLT-4 leukemia
SK-MEL-5 melanoma = system: SK-MEL-5 melanoma
DLD-1 colon = system: DLD-1 colon
NCI-H226 lung = system: NCI-H226 lung
SK-OV-3 ovarian = system: SK-OV-3 ovarian
ACHN renal = system: ACHN renal
NCI-H460 lung = system: NCI-H460 lung
NCI-H522 lung = system: NCI-H522 lung
OVCAR-5 ovarian = system: OVCAR-5 ovarian
HCT-15 colon = system: HCT-15 colon
CAKI-1 renal = system: CAKI-1 renal
DMS 273 small cell lung = system: DMS 273 small cell lung
M19-MEL melanoma = system: M19-MEL melanoma
SR leukemia = system: SR leukemia
HT29 colon = system: HT29 colon
HCT-116 colon = system: HCT-116 colon
A549 NSCLC = system: A549 NSCLC
NCI-H23 lung = system: NCI-H23 lung
SN12C renal = system: SN12C renal
SF-268 CNS = system: SF-268 CNS
SK-MEL-2 melanoma = system: SK-MEL-2 melanoma
TK-10 renal = system: TK-10 renal
OVCAR-4 ovarian = system: OVCAR-4 ovarian
HOP-92 NSCLC = system: HOP-92 NSCLC
OVCAR-3 ovarian = system: OVCAR-3 ovarian
A498 renal = system: A498 renal
786-0 renal = system: 786-0 renal
HL-60(TB) leukemia = system: HL-60(TB) leukemia
K-562 leukemia = system: K-562 leukemia
CCRF-CEM leukemia = system: CCRF-CEM leukemia
LOX IMVI melanoma = system: LOX IMVI melanoma
HOP-18 NSCLC = system: HOP-18 NSCLC
M14 melanoma = system: M14 melanoma
IGROV1 ovarian = system: IGROV1 ovarian
SW-620 colon = system: SW-620 colon
RXF 393 renal = system: RXF 393 renal
UACC-257 melanoma = system: UACC-257 melanoma
SK-MEL-28 melanoma = system: SK-MEL-28 melanoma
SNB-19 CNS = system: SNB-19 CNS
EKVX NSCLC = system: EKVX NSCLC
HCC-2998 colon = system: HCC-2998 colon

O=Cc1c(O)ccc2ccc(O)c(-c3c(O)ccc4ccc(O)cc34)c12
TGI (UACC-62 melanoma): > 100 µM | TGI (KM20L2 colon): > 100 µM | TGI (RPMI-8226 leukemia): > 100 µM | TGI (HOP-62 NSCLC): > 100 µM | TGI (KM12 colon): > 100 µM | TGI (SNB-75 CNS): > 100 µM | TGI (LXFL 529 NSCLC): > 100 µM | TGI (OVCAR-8 ovarian): > 100 µM | TGI (SNB-78 CNS): > 100 µM | TGI (SF-539 CNS): > 100 µM | TGI (COLO 205 colon): > 100 µM | TGI (DMS 114 small cell lung): > 100 µM | TGI (SF-295 CNS): > 100 µM | TGI (UO-31 renal): > 100 µM | TGI (U251 CNS): > 100 µM | TGI (MALME-3M melanoma): > 100 µM | TGI (MOLT-4 leukemia): > 100 µM | TGI (SK-MEL-5 melanoma): > 100 µM | TGI (DLD-1 colon): > 100 µM | TGI (NCI-H226 lung): 95.1 µM | TGI (SK-OV-3 ovarian): > 100 µM | TGI (ACHN renal): > 100 µM | TGI (NCI-H460 lung): > 100 µM | TGI (NCI-H522 lung): > 100 µM | TGI (OVCAR-5 ovarian): > 100 µM | TGI (HCT-15 colon): > 100 µM | TGI (CAKI-1 renal): > 100 µM | TGI (DMS 273 small cell lung): > 100 µM | TGI (M19-MEL melanoma): > 100 µM | TGI (SR leukemia): > 100 µM | TGI (HT29 colon): > 100 µM | TGI (HCT-116 colon): > 100 µM | TGI (A549 NSCLC): > 100 µM | TGI (NCI-H23 lung): > 100 µM | TGI (SN12C renal): > 100 µM | TGI (SF-268 CNS): > 100 µM | TGI (SK-MEL-2 melanoma): > 100 µM | TGI (TK-10 renal): > 100 µM | TGI (OVCAR-4 ovarian): > 100 µM | TGI (HOP-92 NSCLC): > 100 µM | TGI (OVCAR-3 ovarian): > 100 µM | TGI (A498 renal): > 100 µM | TGI (786-0 renal): > 100 µM | TGI (HL-60(TB) leukemia): > 100 µM | TGI (K-562 leukemia): > 100 µM | TGI (CCRF-CEM leukemia): > 100 µM | TGI (LOX IMVI melanoma): > 100 µM | TGI (HOP-18 NSCLC): > 100 µM | TGI (M14 melanoma): > 100 µM | TGI (IGROV1 ovarian): > 100 µM | TGI (SW-620 colon): > 100 µM | TGI (RXF 393 renal): > 100 µM | TGI (UACC-257 melanoma): > 100 µM | TGI (SK-MEL-28 melanoma): > 100 µM

O=C1c2ccccc2-c2ccccc2C(=O)C1(Br)Br
TGI (UACC-62 melanoma): 19.6 µM | TGI (KM20L2 colon): 31.8 µM | TGI (RPMI-8226 leukemia): 4.65 µM | TGI (HOP-62 NSCLC): 32.2 µM | TGI (KM12 colon): 31.5 µM | TGI (SNB-75 CNS): 17.6 µM | TGI (LXFL 529 NSCLC): 21.1 µM | TGI (OVCAR-8 ovarian): 23.9 µM | TGI (SNB-78 CNS): 23.4 µM | TGI (SF-539 CNS): 23.7 µM | TGI (COLO 205 colon): 20.7 µM | TGI (DMS 114 small cell lung): 28.5 µM | TGI (SF-295 CNS): 29.6 µM | TGI (UO-31 renal): 27.5 µM | TGI (U251 CNS): 29.4 µM | TGI (MALME-3M melanoma): 13.6 µM | TGI (MOLT-4 leukemia): 7.53 µM | TGI (SK-MEL-5 melanoma): 31.1 µM | TGI (DLD-1 colon): 20.3 µM | TGI (NCI-H226 lung): 31.7 µM | TGI (SK-OV-3 ovarian): 33.7 µM | TGI (ACHN renal): 24.6 µM | TGI (NCI-H460 lung): 35 µM | TGI (NCI-H522 lung): 4.92 µM | TGI (OVCAR-5 ovarian): 32 µM | TGI (HCT-15 colon): 25 µM | TGI (CAKI-1 renal): 16.7 µM | TGI (DMS 273 small cell lung): 29.8 µM | TGI (SNB-19 CNS): 31.6 µM | TGI (M19-MEL melanoma): 22.3 µM | TGI (SR leukemia): 4.95 µM | TGI (HT29 colon): 32.7 µM | TGI (HCT-116 colon): 21.9 µM | TGI (A549 NSCLC): 34.6 µM | TGI (NCI-H23 lung): 26.4 µM | TGI (SN12C renal): 24.2 µM | TGI (SF-268 CNS): 28.5 µM | TGI (SK-MEL-2 melanoma): 23.6 µM | TGI (TK-10 renal): 24.6 µM | TGI (OVCAR-4 ovarian): 26.7 µM | TGI (EKVX NSCLC): 27.7 µM | TGI (HOP-92 NSCLC): 9.59 µM | TGI (OVCAR-3 ovarian): 27.4 µM | TGI (A498 renal): 30.2 µM | TGI (HCC-2998 colon): 32.2 µM | TGI (786-0 renal): 25.7 µM | TGI (HL-60(TB) leukemia): 6.47 µM | TGI (K-562 leukemia): 28.3 µM | TGI (CCRF-CEM leukemia): 9.26 µM | TGI (LOX IMVI melanoma): 22.2 µM | TGI (HOP-18 NSCLC): 26.2 µM | TGI (M14 melanoma): 17.9 µM | TGI (IGROV1 ovarian): 27.2 µM | TGI (SW-620 colon): 13 µM | TGI (RXF 393 renal): 10.9 µM | TGI (UACC-257 melanoma): 22.8 µM | TGI (SK-MEL-28 melanoma): 20.8 µM
